Measured values published in PMC10726355, “Small Molecule Ligands of the BET-like Bromodomain, SmBRD3, Affect Schistosoma mansoni Survival, Oviposition, and Development” (Journal of Medicinal Chemistry, 2023).
Entries after “also recorded” stand apart in the source; their conditions may differ. Like-named read-outs stand apart in the source and are kept apart here.

Tests used:
SmBRD3(2) = SmBRD3(2) (Schistosoma mansoni, UniProt A0A5K4ESD7); assay: biochemical; format: binding; settings: for N number, binding to SmBRD3(2), Repeat 1 / N number, binding to SmBRD3(2), Repeat 2 / N number, binding to SmBRD3(2), Mean / N number, binding to SmBRD3(2), Repeat 3: ITC stoichiometry; for N number, binding to SmBRD3(2), Mean: mean of repeats
Chain of SmBRD3(2) (A0A5K4ESD7 entry or part of it): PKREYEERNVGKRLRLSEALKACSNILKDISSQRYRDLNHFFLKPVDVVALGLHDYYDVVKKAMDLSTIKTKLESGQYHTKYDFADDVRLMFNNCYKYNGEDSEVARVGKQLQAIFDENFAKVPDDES

SmBRD3(1,2) = SmBRD3(1,2) (Schistosoma mansoni, UniProt A0A5K4ESD7); assay: biochemical; format: binding; settings: for N number, binding to SmBRD3(1,2): ITC stoichiometry, n=1 ± error of curve fit
Chain of SmBRD3(1,2) (A0A5K4ESD7 entry or part of it): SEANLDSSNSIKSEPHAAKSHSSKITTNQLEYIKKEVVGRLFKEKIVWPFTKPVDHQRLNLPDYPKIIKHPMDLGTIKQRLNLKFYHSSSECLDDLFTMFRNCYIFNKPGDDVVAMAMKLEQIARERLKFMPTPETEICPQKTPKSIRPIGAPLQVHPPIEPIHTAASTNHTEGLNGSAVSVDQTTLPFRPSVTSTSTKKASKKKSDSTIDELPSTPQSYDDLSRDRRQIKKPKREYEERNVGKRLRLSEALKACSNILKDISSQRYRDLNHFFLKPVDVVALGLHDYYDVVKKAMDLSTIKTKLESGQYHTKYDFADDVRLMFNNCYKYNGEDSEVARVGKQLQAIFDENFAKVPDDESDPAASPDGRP

S. mansoni adult worms = assay: Ex vivo adult worm screening (motility, IVLEs, pairing); design: species or system Schistosoma mansoni; settings: 20 μM in 0.2% DMSO; 72 h
Experimental: S. mansoni adult worms were recovered by hepatic portal vein perfusion from TO mice (Mus musculus HsdOLa:TO - Tuck Ordinary; Envigo, UK) that were percutaneously infected 7 weeks earlier with 180 cercariae.[65],[71] Following perfusion, schistosomes were washed and processed as previously described.[65],[66] Subsequently, schistosome pairs were seeded into 48 well tissue culture plates (1 worm pair/well, in duplicate) and dosed with the compounds (20 μM in 0.2% DMSO). DMSO (0.2%) and praziquantel (10 μM in 0.1% DMSO) were also included as negative and positive controls, respectively. Parasite motility was assessed by a digital image processing-based system (WormassayGP2),[66] modified after Wormassay.[72]In vitro laid eggs (IVLEs) were enumerated and the presence or absence of paired worms was noted.

S. mansoni schistosomula = assay: Ex vivo schistosomula screening (Roboworm high content imaging); design: species or system Schistosoma mansoni; settings: 72 h; for EC50: Schistosoma mansoni, ethyl esters (R=Et), 95% CI in brackets
Experimental: A high-throughput imaging platform that quantifies both phenotype and motility ex vivo, was used to screen compounds against schistosomula; their effects were assessed as previously described.[20] Briefly, the schistosomula stage of S. mansoni was obtained by mechanical transformation of cercariae, dispensed into 384-well tissue culture plates, and dosed with 20 μM (Figure 7) or 10 μM (Figure S48) of each compound. Following 72 h coincubation of the schistosomula and compound, the plate was subjected to high content imaging to quantify the effects of each compound.
S. mansoni schistosomula were obtained by mechanical transformation from cercariae as previously described,[64] distributed in 384-well tissue culture plates (PerkinElmer, catalogue number 6007460) at 120 parasites/well and dosed with the selected compounds as previously reported.[65]−[68] For this study, each compound (as 10 mM DMSO stock solution) was initially tested at two concentration points (20 and 10 μM final concentration, in duplicates) in at least four independent screens (Z′ scores above 0.35).[69] Each screen contained both positive (10 μM auranofin (AUR) in 0.625% DMSO) and negative (0.625% DMSO) controls. […] Following 72 h schistosomula/compound coincubation, the plate was analyzed by the Roboworm platform.[70] EC50 values were calculated from the titrated concentrations by nonlinear regression, after log transformation of concentrations and data normalization using GraphPad Prism 7.02.

S. mansoni miracidia = assay: Ex vivo miracidia to sporocyst transformation screening; design: species or system Schistosoma mansoni; settings: 0.5-25 μM in 1% DMSO; 48 h; 26 °C
Experimental: S. mansoni miracidia were obtained by hatching of schistosome eggs as previously described.[73] The resulting miracidial suspension was collected, washed with Chernin’s balanced salt solution (CBSS),[73] and enumerated prior to being used for ex vivo miracidia to sporocyst screens as previously reported.[66],[73] Each compound was tested at 0.5, 2.0, 5.0, 10, and 25 μM final concentrations (in 1% DMSO). Each treatment was set up in duplicate (15–25 miracidia/well). Each titration was performed in three independent experiments (two technical replicates per data point). Parasites cultured in CBSS (containing 1% DMSO) were included as negative controls. After 48 h incubation at 26 °C in the dark, dead, fully transformed and partially transformed miracidia were enumerated as previously described.[74],[75]

CAD solubility assay = format: physicochemical; settings: phosphate buffered saline, pH 7.4, phosphate buffered saline at pH 7.4; read-out: Aqueous Solubility by CAD
Experimental: A CAD solubility assay was carried out by Physchem Team, Discovery Analytical, NCE Molecular Discovery at GSK. 5 μL of 10 mM DMSO stock solution was diluted to 100 μL with pH 7.4 phosphate buffered saline, equilibrated for 1 h at room temperature, and filtered through Millipore MultiscreenHTS-PCF filter plates (MSSL BPC). The filtrate was quantified using a suitably calibrated charged aerosol detector.[45]

chromLogD assay = format: physicochemical; settings: reversed phase HPLC column (Gemini NX C18), pH 7.4
Experimental: Lipophilicity: a chromLogD assay was carried out by the Physchem Team, Discovery Analytical, NCE Molecular Discovery at GSK. The chromatographic hydrophobicity index (CHI)[46],[47] values were measured using reversed phase HPLC column (50 × 2 mm […] Gemini NX C18, Phenomenex, UK) with fast acetonitrile gradient at starting mobile phase of pHs 2, 7.4, or 10.5. CHI values were derived directly from the gradient retention times using calibration parameters for standard compounds. The CHI value approximates to the volume % organic concentration when the compound elutes. CHI was linearly transformed into a chromLogD[48] value by least-squares fitting of experimental CHI values to calculated cLogP values for over 20000 research compounds.

[1] = SmBRD3(1,2) Kd, ITC, n = 1 ± error of the curve fit
[2] = ITC, single run ± error of curve fit, Repeat 1
[3] = ITC, single value ± error of the curve fit or mean of 2-3 repeats ± s.e.m.
[4] = read-out: Schistosomla Movement EC50
[5] = read-out: Schistosomla Phenotype EC50
[6] = ITC, read-out: SmBRD3(2) pKd (converted)
[7] = ITC, single run ± error of curve fit, Repeat 2, read-out: SmBRD3(2) Kd, Repeat 2
[8] = read-out: SmBRD3(2) Kd, Repeat 1
[9] = 20 μM (Figure 7) or 10 μM (Figure S48)
[10] = ITC, single run ± error of curve fit, Repeat 3, read-out: SmBRD3(2) Kd, Repeat 3

Structure (SMILES)	SmBRD3(2) Kd (SmBRD3(2))	SmBRD3(2) Kd, Repeat 1 (SmBRD3(2))	Effect on adult worm movement (S. mansoni adult worms)	N number, binding to SmBRD3(2), Repeat 1 (SmBRD3(2); Repeat 1)	N number, binding to SmBRD3(2), Repeat 2 (SmBRD3(2); Repeat 2)	N number, binding to SmBRD3(2), Mean (SmBRD3(2))	Kd (SmBRD3(2); [6])	Kd (SmBRD3(2); [7])	Kd (SmBRD3(2); read-out: SmBRD3(2) Kd)	other results
CCOC(=O)c1ccc(-c2ccc3c(c2)[C@H](Nc2ccc4sccc4c2)C[C@H](C)N3C(C)=O)cc1 [Compound 19]	No binding	No binding								
Cc1noc(C)c1-c1cc(O)cc(C(O)c2ccc(F)cc2)c1 (centres unmarked) [Compound 3, OXFBD02-F, reference compound]										N number, binding to SmBRD3(1,2) (SmBRD3(1,2)): 1.05 ± 3.9e-2; Kd (SmBRD3(1,2); [1]): 1750 ± 301 nM; Kd (SmBRD3(1,2); SmBRD3(1,2) pKd, ITC): 1580 nM; SmBRD3(2) Kd, Repeat 1 (SmBRD3(2); [2]): No binding; SmBRD3(2) Kd (SmBRD3(2); [3]): No detectable binding
CCOC(=O)c1ccc(-c2ccc3c(c2)[C@H](Nc2ccc4[nH]ccc4c2)C[C@H](C)N3C(C)=O)cc1 [Compound 20, Ethyl 4-{(2S,4R)-1-Acetyl-4-[(1H-indol-5-yl)amino]-2-methyl-1,2,3,4-tetrahydroquinolin-6-yl}benzoate]	No binding	No binding	substantial effects							Antischistosomula activity at 10 μM (S. mansoni schistosomula): active; EC50 (S. mansoni schistosomula; [4]): 1810 nM; EC50 (S. mansoni schistosomula; [5]): 2970 nM
CC(=O)N1c2ccc(-c3ccc(C(=O)O)cc3)cc2[C@H](Nc2ccc3ccoc3c2)C[C@@H]1C [Compound 11, 4-((2S,4R)-1-Acetyl-4-[(1-benzofuran-6-yl)amino]-2-methyl-1,2,3,4-tetrahydroquinolin-6-yl)benzoic Acid]				1.54 ± 2.5e-2	1.49 ± 3.0e-2	1.52	1260 nM	1300 ± 236 nM	1180 ± 120 nM	Kd (SmBRD3(2); [8]): 1060 ± 164 nM
Cc1noc(C)c1-c1cc(O)cc(C(O)c2cccnc2)c1 (centres unmarked) [OXFBD04 (4), OXFBD04, reference compound]										N number, binding to SmBRD3(1,2) (SmBRD3(1,2)): 1.39 ± 2.0e-2; Kd (SmBRD3(1,2); [1]): 2950 ± 261 nM; Kd (SmBRD3(1,2); SmBRD3(1,2) pKd, ITC): 3160 nM; SmBRD3(2) Kd, Repeat 1 (SmBRD3(2); [2]): No binding; SmBRD3(2) Kd (SmBRD3(2); [3]): No detectable binding; Effect on miracidia to sporocyst transformation (S. mansoni miracidia): modest effects
CCOC(=O)c1ccc(-c2ccc3c(c2)[C@H](Nc2ccc4ccoc4c2)C[C@H](C)N3C(C)=O)cc1 [Compound 18, Ethyl 4-{(2S,4R)-1-Acetyl-4-[(1-benzofuran-6-yl)amino]-2-methyl-1,2,3,4-tetrahydroquinolin-6-yl}benzoate]	No binding	No binding	substantial effects							Antischistosomula activity at 10 μM (S. mansoni schistosomula): active; Effect on schistosomula motility (S. mansoni schistosomula; [9]): substantial effects; EC50 (S. mansoni schistosomula; [4]): 3920 nM; EC50 (S. mansoni schistosomula; [5]): 2430 nM
CCOC(=O)c1ccc(-c2ccc3c(c2)[C@H](Nc2ccc4ccsc4c2)C[C@H](C)N3C(C)=O)cc1 [Compound 16, Ethyl 4-{(2S,4R)-1-Acetyl-4-[(1-benzothiophen-6-yl)amino]-2-methyl-1,2,3,4-tetrahydroquinolin-6-yl}benzoate]	No binding	No binding	substantial effects							Effect on miracidia to sporocyst transformation (S. mansoni miracidia): concentration-dependent inhibition
CC(=O)N1c2ccc(-c3ccc(C(=O)O)cc3)cc2[C@H](Nc2ccc3sccc3c2)C[C@@H]1C [Compound 12, 4-((2S,4R)-1-Acetyl-4-[(1-benzothiophen-5-yl)amino]-2-methyl-1,2,3,4-tetrahydroquinolin-6-yl)benzoic Acid]				1.51 ± 1.8e-2	1.55 ± 1.4e-2	1.53	501 nM	543 ± 60.3 nM	553 ± 9.5 nM	Kd (SmBRD3(2); [8]): 562 ± 79.1 nM
CC(=O)N1c2ccc(-c3ccc(C(=O)O)cc3)cc2[C@@H](Nc2ccc3ccsc3c2)C[C@H]1C [Compound 10, 4-{(2R,4S)-1-Acetyl-4-[(1-benzothiophen-6-yl)amino]-2-methyl-1,2,3,4-tetrahydroquinolin-6-yl}benzoic Acid]	No detectable binding; also recorded: does not bind	No binding								solubility at 1 h (CAD solubility assay): > 259 µM; SmBRD3(1,2) Kd (SmBRD3(1,2); ITC, n = 1 ± error of the curve fit): No detectable binding; chromatographic logD (chromLogD assay): 2.83
CCOC(=O)c1ccc(-c2ccc3c(c2)[C@H](Nc2ccc4ncsc4c2)C[C@H](C)N3C(C)=O)cc1 [Compound 21, Ethyl 4-{(2S,4R)1-Acetyl-4-[(1,3-benzothiazol-6-yl)amino]-2-methyl-1,2,3,4-tetrahydroquinolin-6-yl}benzoate]	No binding	No binding	substantial effects							Antischistosomula activity at 10 μM (S. mansoni schistosomula): active; Effect on schistosomula motility (S. mansoni schistosomula; [9]): greatest effects; Effect on schistosomula phenotype (S. mansoni schistosomula; [9]): greatest effects; EC50 (S. mansoni schistosomula; [4]): 2850 nM; EC50 (S. mansoni schistosomula; [5]): 2140 nM
CC(=O)N1c2ccc(-c3ccc(C(=O)O)cc3)cc2[C@H](Nc2ccc3ncsc3c2)C[C@@H]1C [Compound 14, 4-{(2S,4R)-1-Acetyl-4-[(1,3-benzothiazol-6-yl)amino]-2-methyl-1,2,3,4-tetrahydroquinolin-6-yl}benzoic acid]				1.42 ± 2.4e-2	1.54 ± 0.101	1.48	1260 nM	1270 ± 779 nM	1180 ± 86.7 nM	solubility at 1 h (CAD solubility assay): ≥ 260 µM; chromatographic logD (chromLogD assay): 1.78; N number, binding to SmBRD3(2), Repeat 3 (SmBRD3(2); Repeat 3): 1.49 ± 5.4e-2; Kd (SmBRD3(2); ITC, single run ± error of curve fit, Repeat 1, read-out: SmBRD3(2) Kd, Repeat 1): 1010 ± 160 nM; Kd (SmBRD3(2); [10]): 1270 ± 349 nM
CC(=O)N1c2ccc(-c3ccc(C(=O)O)cc3)cc2[C@H](Nc2ccc3[nH]ccc3c2)C[C@@H]1C [Compound 13, 4-{(2S,4R)-1-Acetyl-4-[(1H-indol-5-yl)amino]-2-methyl-1,2,3,4-tetrahydroquinolin-6-yl}benzoic Acid]				1.52 ± 2.0e-2	1.71 ± 1.8e-2	1.61	631 nM	652 ± 78.5 nM	651 ± 12.7 nM	N number, binding to SmBRD3(2), Repeat 3 (SmBRD3(2); Repeat 3): 1.60 ± 1.6e-2; Kd (SmBRD3(2); [10]): 672 ± 76 nM; Kd (SmBRD3(2); [8]): 628 ± 94.9 nM
